Assay results reported in the OPERA property sets (Mansouri et al. 2018).
In brackets after ≈: the same amount, converted by molar mass.

Conditions: for solubility: 25 °C

Structure (SMILES): Clc1c(Cl)c(Cl)c(Oc2c(Cl)c(Cl)c(Cl)c(Cl)c2Cl)c(Cl)c1Cl
- logP: 8.16

Structure (SMILES): Clc1ccc(Oc2cc(Cl)c(Cl)cc2Cl)cc1Cl
- logP: 6.6

Structure (SMILES): Clc1cccc(Oc2ccc(Cl)c(Cl)c2)c1
- logP: 5.74
- solubility: 3.66 µM (≈ 1 µg/mL)

Structure (SMILES): Clc1cc(Oc2c(Cl)ccc(Cl)c2Cl)cc(Cl)c1Cl
- logP: 6.65

Structure (SMILES): Clc1ccc(Oc2cc(Cl)c(Cl)c(Cl)c2Cl)cc1
- logP: 6.61

Structure (SMILES): Clc1ccc(Oc2cc(Cl)c(Cl)c(Cl)c2)cc1Cl
- logP: 6.83

Structure (SMILES): Clc1ccc(Oc2ccc(Cl)c(Cl)c2)c(Cl)c1
- logP: 6.13

Structure (SMILES): Clc1ccc(Oc2cc(Cl)ccc2Cl)cc1
- logP: 5.66
- solubility: 3.63 µM (≈ 0.993 µg/mL)

Structure (SMILES): Clc1ccc(Oc2ccc(Cl)cc2Cl)c(Cl)c1
- logP: 5.95

Structure (SMILES): Clc1ccc(Oc2c(Cl)cccc2Cl)cc1
- logP: 5.3
- solubility: 1.23 µM (≈ 0.337 µg/mL)

Structure (SMILES): Clc1cc(Cl)c(Oc2cc(Cl)c(Cl)cc2Cl)c(Cl)c1
- logP: 6.49

Structure (SMILES): Clc1ccc(Oc2c(Cl)cc(Cl)c(Cl)c2Cl)cc1
- logP: 6.47

Structure (SMILES): Clc1ccc(Oc2ccc(Cl)c(Cl)c2)cc1
- logP: 5.88
- solubility: 2.19 µM (≈ 0.598 µg/mL)

Structure (SMILES): Clc1ccc(Oc2c(Cl)c(Cl)cc(Cl)c2Cl)cc1
- logP: 6.41

Structure (SMILES): Clc1ccc(Oc2c(Cl)ccc(Cl)c2Cl)cc1
- logP: 5.64

Structure (SMILES): Clc1cc(Cl)c(Oc2cccc(Cl)c2Cl)cc1Cl
- logP: 6.22

Structure (SMILES): Clc1cc(Oc2c(Cl)c(Cl)c(Cl)c(Cl)c2Cl)c(Cl)c(Cl)c1Cl
- logP: 8.07

Structure (SMILES): Clc1cc(Oc2cc(Cl)c(Cl)c(Cl)c2Cl)cc(Cl)c1Cl
- logP: 7.55

Structure (SMILES): Clc1ccccc1Oc1ccc(Cl)c(Cl)c1Cl
- logP: 5.72

Structure (SMILES): Clc1ccccc1Oc1ccccc1
- logP: 4.45
- solubility: 16.6 µM (≈ 3.4 µg/mL)

Structure (SMILES): Clc1ccc(Oc2cc(Cl)cc(Cl)c2Cl)cc1
- logP: 6.01

Structure (SMILES): Clc1ccc(Oc2ccccc2)c(Cl)c1Cl
- logP: 5.55

Structure (SMILES): Clc1ccc(Oc2ccc(Cl)c(Cl)c2Cl)c(Cl)c1Cl
- logP: 6.82

Structure (SMILES): Clc1cc(Cl)c(Oc2ccccc2Cl)cc1Cl
- logP: 5.97

Structure (SMILES): Clc1c(Cl)c(Cl)c(Oc2ccccc2)c(Cl)c1Cl
- logP: 6.37

Structure (SMILES): Clc1cc(Oc2ccccc2)cc(Cl)c1Cl
- logP: 5.7

Structure (SMILES): Clc1ccc(Oc2c(Cl)c(Cl)c(Cl)c(Cl)c2Cl)cc1
- logP: 6.95

Structure (SMILES): Clc1ccc(Oc2ccccc2)cc1Cl
- logP: 4.99
- solubility: 19 µM (≈ 4.55 µg/mL)

Structure (SMILES): Clc1ccc(Oc2c(Cl)c(Cl)cc(Cl)c2Cl)cc1Cl
- logP: 6.78

Structure (SMILES): Clc1cccc(Oc2ccc(Cl)cc2Cl)c1
- logP: 5.65
- solubility: 3.62 µM (≈ 0.99 µg/mL)

Structure (SMILES): Clc1ccc(Oc2ccccc2Cl)c(Cl)c1
- logP: 4.96
- solubility: 11.2 µM (≈ 3.07 µg/mL)

Structure (SMILES): Clc1ccc(Oc2cc(Cl)c(Cl)c(Cl)c2)c(Cl)c1
- logP: 6.63

Structure (SMILES): Clc1ccc(Oc2c(Cl)ccc(Cl)c2Cl)c(Cl)c1
- logP: 6.06

Structure (SMILES): Clc1cc(Cl)c(Cl)c(Oc2cc(Cl)c(Cl)cc2Cl)c1
- logP: 6.65

Structure (SMILES): Clc1ccc(Oc2cc(Cl)cc(Cl)c2)cc1
- logP: 5.77
- solubility: 3.02 µM (≈ 0.826 µg/mL)

Structure (SMILES): Clc1cccc(Oc2ccc(Cl)c(Cl)c2Cl)c1Cl
- logP: 6.3

Structure (SMILES): Clc1cc(Cl)c(Cl)c(Oc2ccccc2)c1Cl
- logP: 5.82

Structure (SMILES): Clc1ccc(Oc2c(Cl)c(Cl)c(Cl)c(Cl)c2Cl)cc1Cl
- logP: 7.31

Structure (SMILES): Clc1ccc(Oc2ccc(Cl)c(Cl)c2Cl)c(Cl)c1
- logP: 6.28

Structure (SMILES): Clc1ccc(Oc2ccc(Cl)c(Cl)c2)cc1Cl
- logP: 6.36

Structure (SMILES): Clc1ccc(Oc2c(Cl)cc(Cl)cc2Cl)cc1
- logP: 5.92

Structure (SMILES): Clc1ccc(Oc2ccc(Cl)c(Cl)c2Cl)cc1
- logP: 6.14

Structure (SMILES): Clc1ccc(Cl)c(Oc2ccc(Cl)c(Cl)c2Cl)c1
- logP: 6.51

Structure (SMILES): Clc1cc(Oc2c(Cl)c(Cl)cc(Cl)c2Cl)c(Cl)c(Cl)c1Cl
- logP: 7.63

Structure (SMILES): Clc1cc(Oc2cc(Cl)c(Cl)c(Cl)c2Cl)c(Cl)c(Cl)c1Cl
- logP: 7.78

Structure (SMILES): Clc1cc(Cl)c(Oc2ccc(Cl)c(Cl)c2Cl)cc1Cl
- logP: 7.01

Structure (SMILES): Clc1cc(Cl)c(Cl)c(Oc2ccc(Cl)c(Cl)c2)c1
- logP: 6.52

Structure (SMILES): Clc1ccc(Oc2ccccc2Cl)cc1Cl
- logP: 5.5
- solubility: 6.32 µM (≈ 1.73 µg/mL)

Structure (SMILES): Clc1ccc(Oc2ccc(Cl)cc2)cc1
- logP: 5.25

Structure (SMILES): Clc1cc(Cl)c(Oc2c(Cl)c(Cl)cc(Cl)c2Cl)cc1Cl
- logP: 7.13

Structure (SMILES): Clc1ccc(Oc2ccccc2)c(Cl)c1
- logP: 4.93
- solubility: 23.4 µM (≈ 5.6 µg/mL)

Structure (SMILES): Clc1ccc(Oc2cc(Cl)c(Cl)c(Cl)c2Cl)cc1Cl
- logP: 7.07

Structure (SMILES): Clc1cc(Cl)c(Cl)c(Oc2ccccc2)c1
- logP: 5.62
- solubility: 6.47 µM (≈ 1.77 µg/mL)

Structure (SMILES): Clc1ccc(Oc2cccc(Cl)c2)cc1
- logP: 5.13
- solubility: 17 µM (≈ 4.06 µg/mL)

Structure (SMILES): Clc1cc(Cl)cc(Oc2ccc(Cl)cc2Cl)c1
- logP: 6.13

Structure (SMILES): Clc1ccc(Oc2c(Cl)cccc2Cl)cc1Cl
- logP: 5.7

Structure (SMILES): Clc1ccc(Oc2ccccc2)cc1
- logP: 4.7

Structure (SMILES): Clc1ccc(Oc2cc(Cl)ccc2Cl)c(Cl)c1
- logP: 5.78

Structure (SMILES): Clc1ccc(Oc2cccc(Cl)c2Cl)c(Cl)c1
- logP: 5.88

Structure (SMILES): Clc1cc(Cl)c(Oc2cc(Cl)c(Cl)cc2Cl)cc1Cl
- logP: 6.72

Structure (SMILES): Clc1cc(Cl)c(Oc2c(Cl)ccc(Cl)c2Cl)cc1Cl
- logP: 6.47

Structure (SMILES): Clc1cc(Cl)cc(Oc2ccccc2)c1
- logP: 5.21
- solubility: 8.7 µM (≈ 2.08 µg/mL)

Structure (SMILES): Clc1cc(Cl)c(Oc2cc(Cl)c(Cl)c(Cl)c2Cl)cc1Cl
- logP: 7.46

Structure (SMILES): Clc1cc(Cl)c(Oc2ccc(Cl)c(Cl)c2)c(Cl)c1
- logP: 6.44

Structure (SMILES): Clc1ccc(Cl)c(Oc2ccccc2)c1
- logP: 5.13
- solubility: 10.7 µM (≈ 2.56 µg/mL)

Structure (SMILES): Clc1ccc(Oc2ccccc2Cl)cc1
- logP: 5.03
- solubility: 3.02 µM (≈ 0.722 µg/mL)

Structure (SMILES): Clc1ccc(Cl)c(Oc2cc(Cl)c(Cl)cc2Cl)c1
- logP: 6.22

Structure (SMILES): Clc1cccc(Oc2ccc(Cl)c(Cl)c2Cl)c1
- logP: 6.07

Structure (SMILES): Clc1ccc(Oc2cc(Cl)c(Cl)cc2Cl)c(Cl)c1
- logP: 6.38

Structure (SMILES): Clc1ccc(Oc2c(Cl)ccc(Cl)c2Cl)c(Cl)c1Cl
- logP: 6.47

Structure (SMILES): Clc1ccc(Oc2cc(Cl)cc(Cl)c2Cl)c(Cl)c1
- logP: 6.54

Structure (SMILES): Clc1cccc(Oc2cc(Cl)c(Cl)cc2Cl)c1
- logP: 6.14

Structure (SMILES): Clc1cc(Cl)c(Oc2ccccc2)c(Cl)c1
- logP: 5.32

Structure (SMILES): Clc1cccc(Cl)c1Oc1ccccc1
- logP: 4.64
- solubility: 8.7 µM (≈ 2.08 µg/mL)

Structure (SMILES): Clc1ccc(Oc2c(Cl)ccc(Cl)c2Cl)cc1Cl
- logP: 6.31

Structure (SMILES): Clc1cc(Cl)cc(Oc2ccc(Cl)c(Cl)c2)c1
- logP: 6.22

Structure (SMILES): Clc1ccc(Oc2c(Cl)cc(Cl)cc2Cl)c(Cl)c1
- logP: 6.11

Structure (SMILES): Clc1cc(Cl)c(Cl)c(Oc2cc(Cl)c(Cl)c(Cl)c2)c1
- logP: 7.01

Structure (SMILES): Clc1cccc(Oc2ccccc2)c1
- logP: 4.75
- solubility: 61.6 µM (≈ 12.6 µg/mL)

Structure (SMILES): Clc1cc(Cl)c(Oc2ccccc2)c(Cl)c1Cl
- logP: 5.88

Structure (SMILES): Clc1ccc(Oc2ccc(Cl)cc2Cl)cc1
- logP: 5.53
- solubility: 0.603 µM (≈ 0.165 µg/mL)

Structure (SMILES): Clc1ccc(Oc2cccc(Cl)c2Cl)cc1
- logP: 5.63
- solubility: 4.9 µM (≈ 1.34 µg/mL)

Structure (SMILES): Clc1ccc(Oc2cc(Cl)c(Cl)c(Cl)c2Cl)c(Cl)c1Cl
- logP: 7.28

Structure (SMILES): Clc1ccc(Oc2cc(Cl)c(Cl)cc2Cl)cc1
- logP: 5.99

Structure (SMILES): Clc1cc(Cl)cc(Oc2cc(Cl)c(Cl)cc2Cl)c1
- logP: 6.66

Structure (SMILES): Clc1cc(Oc2ccc(Cl)c(Cl)c2Cl)cc(Cl)c1Cl
- logP: 6.99

Structure (SMILES): Clc1ccc(Oc2c(Cl)cc(Cl)c(Cl)c2Cl)c(Cl)c1
- logP: 6.84

Structure (SMILES): Clc1cc(Cl)c(Oc2cc(Cl)c(Cl)c(Cl)c2)cc1Cl
- logP: 7.11

Structure (SMILES): Clc1ccc(Oc2c(Cl)c(Cl)cc(Cl)c2Cl)c(Cl)c1Cl
- logP: 7.14

Structure (SMILES): Clc1ccc(Oc2cccc(Cl)c2Cl)cc1Cl
- logP: 5.99

Structure (SMILES): Clc1ccc(Oc2cc(Cl)c(Cl)c(Cl)c2Cl)c(Cl)c1
- logP: 6.72

Structure (SMILES): Clc1ccc(Oc2cc(Cl)c(Cl)c(Cl)c2)cc1
- logP: 6.3

Structure (SMILES): Clc1ccc(Oc2c(Cl)c(Cl)c(Cl)c(Cl)c2Cl)c(Cl)c1
- logP: 7.31

Structure (SMILES): Clc1cccc(Oc2ccccc2)c1Cl
- logP: 5

Structure (SMILES): Clc1ccc(Oc2c(Cl)c(Cl)c(Cl)c(Cl)c2Cl)c(Cl)c1Cl
- logP: 7.84

Structure (SMILES): Clc1cc(Cl)cc(Oc2ccc(Cl)c(Cl)c2Cl)c1
- logP: 6.58

Structure (SMILES): Clc1ccc(Oc2ccc(Cl)c(Cl)c2Cl)cc1Cl
- logP: 6.51

Structure (SMILES): Clc1ccc(Cl)c(Oc2ccc(Cl)c(Cl)c2)c1
- logP: 6.11

Structure (SMILES): Clc1ccc(Cl)c(Oc2ccccc2)c1Cl
- logP: 5.35

Structure (SMILES): Clc1cc(Oc2c(Cl)ccc(Cl)c2Cl)c(Cl)c(Cl)c1Cl
- logP: 6.98

Structure (SMILES): Clc1ccc(Oc2c(Cl)cccc2Cl)c(Cl)c1Cl
- logP: 6.11

Structure (SMILES): Clc1cc(Cl)c(Oc2c(Cl)cccc2Cl)cc1Cl
- logP: 5.98

Structure (SMILES): Clc1cc(Cl)c(Oc2c(Cl)c(Cl)c(Cl)c(Cl)c2Cl)cc1Cl
- logP: 7.81
